The values that follow are results of earlier work, collected in US20070254006A1, “Medical Devices and Coatings with Non-Leaching Antimicrobial Peptides” (Massachusetts Institute of Technology, priority 2006, published 2007).

One data set has as its system avidin and streptavidin. The note with it: interaction with avidin and streptavidin.
A further data set deals with Staphylococcus aureus. The note with it: Dacron graft soaked in peptide solution before implanting in a rat, bacterial challenge.

Consider `O=C(O)CCCC[C@@H]1SC[C@@H]2NC(=O)N[C@@H]21` [Biotin], for which the Ka with avidin and streptavidin is listed as 10^15 M^−1.

Take dermaseptin: in the data set with Staphylococcus aureus, the “incidence of device colonization and infection” value was “reduces the incidence of device colonization and infection”.
